This is an account of results in PubChem BioAssay (NCI).

Where “and” joins values, the source holds several entries; their conditions need not be identical. Equal values may be shown once.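 Values below derive from 48-hour exposures of cells grown in 96-well plates, with endpoints linearly interpolated between the two concentrations bracketing the appropriate inhibition level. The concentration for 50% growth inhibition is given as GI50. TGI marks complete inhibition of growth.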

What all share (assay): NCI anticancer screen, dose series, 48 h
The test system of assay [1] is MCF7 breast.
Assay [2] deals with TK-10 renal.
The subject of assay [3] is SK-MEL-5 melanoma.
In assay [4] the test system is NCI-H23 lung.
Assay [5] concerns BT-549 breast.
Assay [6] has as its system RPMI-8226 leukemia.
Assay [7] deals with A498 renal.
Assay [8] deals with NCI-H522 lung.
The test system of assay [9] is 786-0 renal.
Assay [10] relates to T-47D breast.

Consider `CC(CCC/C=C/CCCN(C)C(=N)N)CC(C)C1OC(=O)C(C)C(O)/C=C/C(C)C(O)C(C)C(O)C(C)C(O)CCCC(O)CC2(O)OC(CC(OC(=O)CC(=O)O)CC(O)CC(O)C(C)C(O)/C=C/C=C/C1C)CC(O)C2O` (stereo not drawn), for which the GI50 is 1.79 µM and 3.53 µg/mL in assay [1]; 1.98 µM and 10.3 µg/mL in [2]; 1.75 µM and 1.48 µg/mL in assay [3]; 5.99 µM and 13.7 µg/mL in assay [4]; 2.19 µM and 3.16 µg/mL in assay [5]; 2.71 µM and 9.09 µg/mL in [6]. Further, the GI50 is 2.44 µM and 10.6 µg/mL in assay [7]; 2.38 µM and 2.79 µg/mL in assay [8]; 2.8 µM and 5.3 µg/mL in assay [9]; 1.81 µM and 2.63 µg/mL in assay [10]. The TGI in assay [1] was 3.67 µM and 14 µg/mL; in assay [2] it was 4.17 µM and 21.4 µg/mL; in assay [3], 3.18 µM and 3.33 µg/mL; in [4] it was 20.8 µM and 29.4 µg/mL; in [5], 4.03 µM and 12 µg/mL; in assay [6], 10.5 µM and 28 µg/mL. Also, the TGI in [7] was 7.16 µM and 21.3 µg/mL; in [8], 10.5 µM and 12.9 µg/mL; in assay [9], 7.6 µM and 17.5 µg/mL; in [10], 4.44 µM and 11.9 µg/mL.
In the case of `Cn1cc(C2=C(c3cn(CCCSC(=N)N)c4ccccc34)C(=O)NC2=O)c2ccccc21`, the GI50 in assay [1] was 0.799 µM; in assay [2] it was 3.88 µM; in assay [3], 1.56 µM; in assay [4], 3.32 µM; in assay [5], 4.83 µM; in assay [6], 4.61 µM. Further, the GI50 in assay [7] is 5 µM; in assay [8], 1.51 µM; in assay [9], 4.71 µM; in assay [10], 1.11 µM. In addition, the TGI was found to be 3 µM in assay [1]; 10.7 µM in assay [2]; 4.27 µM in assay [3]; 9.72 µM in [4]; 10.8 µM in [5]; 10.3 µM in assay [6]. Further, the TGI in assay [7] worked out at 12 µM; in assay [8] it was 5.27 µM; in assay [9], 10.9 µM; in assay [10], 5.12 µM.
Take `O=C1/C(=C/c2ccc([N+](=O)[O-])s2)Oc2ccc(Cl)cc21`: the GI50 is 0.305 µM in assay [1]; 0.372 µM in [2]; 0.343 µM in assay [3]; 0.592 µM in [4]; 0.248 µM in assay [5]; 0.298 µM in assay [6]. Moreover, the GI50 in assay [7] is 1.74 µM; in assay [8], 0.198 µM; in [9] it was 0.887 µM; in assay [10], 0.309 µM. Also, the TGI in assay [1] was 1.43 µM; in [2], 26.9 µM; in [3], 0.86 µM; in assay [4] it was 1.82 µM; in assay [5], 0.682 µM; in assay [6], 0.97 µM. Further, the TGI amounted to 4.91 µM in assay [7], 0.435 µM in assay [8], 3.21 µM in assay [9] and 1.64 µM in assay [10].
With `N#Cc1ccccc1C#C/C=C\C#Cc1cnccn1`, the GI50 in assay [1] was > 60 µM; in assay [2], 13 µM; in assay [3], 17 µM; in [4] it was 7.04 µM; in assay [5] it was 35.4 µM; in assay [6], 2.71 µM. Further, the GI50 in assay [7] is 16.2 µM; in [8], 18 µM; in assay [9] it was 21 µM; in [10], > 66.3 µM. Further, the TGI was > 100 µM in assay [1]; 63.6 µM in assay [2]; 45.4 µM in assay [3]; 22.4 µM in assay [4]; > 100 µM in assay [5]; > 21.5 µM in assay [6]. Further, the TGI in [7] is 52.3 µM; in assay [8] it was > 65.9 µM; in assay [9], > 79.3 µM; in assay [10], > 100 µM.
For the compound `COc1ccc(/C=C2\CC(C)CC3C2=NN(C(C)=O)C3c2ccc(OC)c(OC)c2)cc1OC` (stereo not drawn), the GI50 in [1] is 14.4 µM; in assay [2], 65 µM; in assay [3] it was 12.7 µM; in assay [4], 14.9 µM; in [5], 19 µM; in assay [6], 8.19 µM. Moreover, the GI50 in [7] is 15.9 µM; in [8], 14.5 µM; in [9], 12.9 µM; in assay [10], 2.68 µM. Further, the TGI in assay [1] was 30.6 µM; in assay [2], > 100 µM; in assay [3], 27.4 µM; in assay [4] it was 29.3 µM; in assay [5], 37.9 µM; in assay [6] it was 32 µM. Besides, the TGI was determined as 31 µM in assay [7], 40.4 µM in assay [8], 27.4 µM in assay [9] and 9.42 µM in assay [10].
Take `COc1cc(C2C3=C(COC3=O)N(CCO)c3cc4c(cc32)CCC4)cc(OC)c1OC` (stereo not drawn): the GI50 was 0.0986 µM in assay [1]; 1.56 µM in assay [2]; 0.0956 µM in assay [3]; 0.0903 µM in assay [4]; 0.136 µM in [5]; 0.135 µM in [6]. In addition, the GI50 was 0.0722 µM in assay [7], 0.041 µM in [8], 0.119 µM in assay [9] and > 32.5 µM in [10]. Further, the TGI is 23.8 µM in [1]; > 32.5 µM in [2]; 0.451 µM in assay [3]; > 18.4 µM in assay [5]; > 12.2 µM in assay [6]; 1.76 µM in assay [7]. In addition, the TGI in assay [8] is 0.212 µM; in [10] it was > 32.5 µM.
Take `CCOC(=O)C(Cc1ccc(N(CCCl)CCCl)cc1)NC(=O)C(CC(C)C)NC(C)=O` (stereo not drawn): the GI50 in [1] is 0.699 µM; in [2] it was 1.98 µM; in assay [3] it was 2.45 µM; in assay [4] it was 0.679 µM; in assay [5] it was 7.07 µM; in [6], 1.96 µM. For the same compound, the GI50 in [7] was 2.29 µM; in assay [8] it was 1.13 µM; in [9], 1.38 µM; in assay [10] it was 0.642 µM. Besides, the TGI worked out at 15.4 µM in assay [1]; 4.87 µM in assay [2]; 9.82 µM in assay [3]; 2.68 µM in assay [4]; 21.7 µM in [5]; 6.7 µM in assay [6]. Further, the TGI stood at 10.6 µM in [7], 2.65 µM in [8], 4.38 µM in assay [9] and 3.48 µM in assay [10].
Regarding `O=C(CN1C(=O)c2ccccc2C1=O)NC1(C(=O)O)CCCC1`, the TGI in assay [1], in assay [2], in assay [3], in assay [4], in assay [5] and in assay [6] was > 100 µM throughout. Moreover, the TGI in assay [7], in assay [8], in assay [9] and in assay [10] was > 100 µM each time.
As for `Oc1ccc(-c2nc(-c3ccc4oc5ccc(-c6[nH]c(-c7ccc(O)cc7)nc6-c6ccccc6)cc5c4c3)c(-c3ccccc3)[nH]2)cc1`, the GI50 in [1] was 2.99 µM; in assay [2] it was 6.34 µM; in assay [3], 4.46 µM; in assay [4], 5.2 µM; in [5] it was 18.8 µM; in assay [6], 3.17 µM. For the same compound, the GI50 was 12.2 µM in assay [7], 2.95 µM in [8], 5.75 µM in assay [9] and 4.66 µM in [10]. Besides, the TGI is 73.9 µM in [1]; 19.2 µM in [2]; 75.5 µM in assay [3]; 33.7 µM in assay [4]; 58.2 µM in [5]; > 100 µM in [6]. For the same compound, the TGI in assay [7] is 26 µM; in [8], 8.02 µM; in assay [9] it was 29.8 µM; in assay [10], > 100 µM.
`CC[N+]1(C)CCC(O)(/C=C/c2ccccc2)C(C(=O)/C=C/c2ccccc2)C1` (stereo not drawn): the TGI is > 23.7 µM in [1]; 18.3 µM in [2]; 32.7 µM in [3]; 35 µM in assay [4]; 34.5 µM in [5]; 5.76 µM in assay [6]. In addition, the TGI is 38.9 µM in assay [7], 3.78 µM in assay [8], 13.9 µM in assay [9] and 40.4 µM in assay [10].
Take `Cn1cnc2nc(Cl)nc(Cl)c21`: the GI50 was 0.335 µM in assay [1]; 3.84 µM in assay [2]; 2.7 µM in assay [3]; 10.4 µM in assay [4]; 10.7 µM in assay [5]; 0.591 µM in assay [6]. For the same compound, the GI50 in assay [7] was 2.2 µM; in assay [8], 1.17 µM; in [9] it was 1.01 µM; in assay [10], 0.489 µM. For the same compound, the TGI was determined as 13.2 µM in assay [1]; 26.2 µM in [2]; 10.8 µM in [3]; 34.2 µM in assay [4]; 66.6 µM in [5]; 26.4 µM in [6]. Moreover, the TGI in assay [7] was 6.77 µM; in [8] it was 3.26 µM; in assay [9] it was > 100 µM; in [10], 26.8 µM.
For the compound `COc1cc(OC)c(-c2oc3ccccc3c(=O)c2O)c(OC)c1`, the TGI in assay [1], in [2], in [3], in assay [4], in [5] and in assay [6] was > 100 µM throughout. Moreover, the TGI was > 100 µM in assay [7], > 29.2 µM in assay [8], > 100 µM in assay [9] and > 100 µM in [10].
